Measurements: patent US8815939B2, “Substituted sulfamide derivatives” (Janssen Pharmaceutica NV, priority 2008, dated 2014)

How the values were obtained:
Type in all cases: in vivo
CF-1 male albino mice = assay: Maximal Electroshock Test (MES), anticonvulsant activity
Procedure: Anticonvulsant activity was determined using the MES test, run according to the procedure described in detail below. Swinyard E A, Woodhead J H, White H S, Franklin M R. Experimental selection, quantification, and evaluation of anticonvulsants. In Levy R H, et al., eds. Antiepileptic Drugs. 3rd ed. New York: Raven Press, 1989:85-102.
CF-1 male albino mice (25-35 g) were fasted for 16 hours before testing. Mice were randomly selected into control and test groups, with the animals dosed with vehicle or test compound, at varying concentrations, respectively. […] Seizures were induced by trans-corneal electric shock using a 60-Hz alternating current, 50 mA, delivered for 0.2 sec. […] […] The test was complete when the entire course of the convulsion has been observed (typically, less than 1 minute after electrical stimulation), and the mice were then immediately euthanized by carbon dioxide inhalation.
Abolition of the full body tonic extensor component of the seizure was taken as the endpoint of the test. […] The ED50 value of the test compound (calculated when appropriate) was the calculated dose required to block the hind limb tonic-extensor component of the MES-induced seizure in 50% of the rodents tested. A probit analysis was used to calculate the ED50 and 95% fiducial limits (FL).
Results are listed as (number of mice with full body tonic extension prevented)/(total number of mice tested) (@ a given time).

[1] = Human plasma samples from clinical trials dosing with the compound of formula (S)
Excerpt: and pharmaceutically acceptable salts thereof.
(§1) The compound of formula (A) was initially isolated from human plasma samples from clinical trials dosing with the compound of formula (S). Additionally, the compound of formula (A) is a pro-drug of the compound of formula (S).

[2] = Mice studies dosing with the compound of formula (A): plasma and brain analyses; settings: mice dosed with the compound of formula (A)
Excerpt: as §1

SMILES	MES Activity, (number of mice with full body tonic extension prevented)/(total number of mice tested) (CF-1 male albino mice; 150 mg/kg po, 3 Hrs)	metabolite found in human plasma [1]	MES Activity, (number of mice with full body tonic extension prevented)/(total number of mice tested) (CF-1 male albino mice; 200 mg/kg po, 0.50 Hrs)	MES Activity, (number of mice with full body tonic extension prevented)/(total number of mice tested) (CF-1 male albino mice; 200 mg/kg po, 1.0 Hrs)	MES Activity, (number of mice with full body tonic extension prevented)/(total number of mice tested) (CF-1 male albino mice; 200 mg/kg po, 2 Hrs)	MES Activity, (number of mice with full body tonic extension prevented)/(total number of mice tested) (CF-1 male albino mice; 200 mg/kg po, 3 Hrs)	MES Activity, (number of mice with full body tonic extension prevented)/(total number of mice tested) (CF-1 male albino mice; 200 mg/kg po, 6 Hrs)	plasma and brain levels of compound (A) and compound (S) after dosing (pro-drug conversion) [2]
NS(=O)(=O)NC[C@H]1COc2cc(Cl)ccc2O1 [Compound (S), (2S)-(−)-N-(6-chloro-2,3-dihydro-benzo[1,4]dioxin-2-ylmethyl)-sulfamide, reference compound]	5/5	The compound of formula (A) is a human metabolite of the compound of formula (S)	–	–	–	–	–	–
CC(=O)NS(=O)(=O)NC[C@H]1COc2cc(Cl)ccc2O1 [Compound (A), (2S)-(−)-N′-acetyl-N-(6-chloro-2,3-dihydro-benzo[1,4]dioxin-2-ylmethyl)-sulfamide]	–	–	0/5	1/5	4/5	5/5	2/5	levels of the compound of formula (S) higher than those of the compound of formula (A)
